Results: US20250163076A1, “SYNTHESIS OF BRUTON'S TYROSINE KINASE INHIBITORS” (JANSSEN PHARMACEUTICA NV, priority 2022, published 2025)
Converted amounts (≈) assume the structure as drawn. Marks after values point to notes of the source that are not given here.

How the values were obtained:
[1] = Aqueous solubility at pH 2 and pH 7; assay type: physicochemical; conditions: aqueous medium, Table 4
BTK = BTK (Homo sapiens, UniProt Q06187); experiment: BTK covalent inhibition kinetics (KI, kinact, kinact/KI); assay type: biochemical; conditions: Table 4
Protocol: The development of the structure-activity relationship was conducted by characterizing the non-covalent affinity of each inhibitor for BTK (KI) and the first order rate constant for irreversible covalent bond formation (kinact). The second order rate constant kinact/KI ratio is used to assess the covalent inhibitor potency because it is independent of incubation time and substrate concentrations (Copeland, R. A. Evaluation of Enzyme Inhibitors in Drug Discovery: a Guide for Medicinal Chemists and Pharmacologists; 2nd ed.; Wiley: Hoboken, N.J., 2013).

[2] = Human liver microsomes T1/2; assay type: in vitro ADME; conditions: human, liver microsomes; Table 4
[3] = Solubility of P and M forms in solvent systems and their water mixtures; assay type: physicochemical
Source text: Moreover, this solubility difference can be tuned by changing the ratio between 1-propanol/water. Therefore, M form can be efficiently converted even starting from a 1:1 d.r. mixture.

[4] = average of 2 independent determinations (± SD)
[5] = 1-Butanol/water (~6/94 w/w %), 10° C.
[6] = 1-Butanol/water (~6/94 w/w %), 25° C.
[7] = 1-Butanol/water (~6/94 w/w %), 50° C.
[8] = 1-Butanol/water (~80/20 w/w %), 10° C.
[9] = 1-Butanol/water (~80/20 w/w %), 25° C.
[10] = 1-Butanol/water (~80/20 w/w %), 50° C.
[11] = 1-Propanol/water (20/80 w/w %), 25° C.
[12] = 1-Propanol/water (20/80 w/w %), 50° C.
[13] = 1-Propanol/water (33/67 w/w %), 25° C.
[14] = 1-Propanol/water (33/67 w/w %), 50° C.
[15] = 1-Propanol/water (50/50 w/w %), 25° C.
[16] = 1-Propanol/water (50/50 w/w %), 50° C.
[17] = 1-Propanol/water (67/33 w/w %), 10° C.
[18] = 1-Propanol/water (67/33 w/w %), 25° C.
[19] = 1-Propanol/water (67/33 w/w %), 50° C.
[20] = 1-Propanol/water (80/20 w/w %), 10° C.
[21] = 1-Propanol/water (80/20 w/w %), 25° C.
[22] = 1-Propanol/water (80/20 w/w %), 50° C.
[23] = 2-butanol/water (~17/83 w/w %), 10° C.
[24] = 2-butanol/water (~17/83 w/w %), 25° C.
[25] = Isopropanol/water (~16/84 w/w %), 10° C.
[26] = Isopropanol/water (~16/84 w/w %), 25° C.
[27] = Isopropanol/water (~16/84 w/w %), 50° C.
[28] = Isopropanol/water (~28/72 w/w %), 10° C.
[29] = Isopropanol/water (~28/72 w/w %), 25° C.
[30] = Isopropanol/water (~28/72 w/w %), 50° C.
[31] = Isopropanol/water (~44/56 w/w %), 10° C.
[32] = Isopropanol/water (~44/56 w/w %), 25° C.
[33] = Isopropanol/water (~44/56 w/w %), 50° C.
[34] = Isopropanol/water (~61/39 w/w %), 10° C.
[35] = Isopropanol/water (~61/39 w/w %), 25° C.
[36] = Isopropanol/water (~61/39 w/w %), 50° C.
[37] = Propylene carbonate/water (93/7 w/w %), 10° C.
[38] = Propylene carbonate/water (93/7 w/w %), 25° C.
[39] = Propylene carbonate/water (93/7 w/w %), 50° C.

BTK, sequence (Q06187 whole entry): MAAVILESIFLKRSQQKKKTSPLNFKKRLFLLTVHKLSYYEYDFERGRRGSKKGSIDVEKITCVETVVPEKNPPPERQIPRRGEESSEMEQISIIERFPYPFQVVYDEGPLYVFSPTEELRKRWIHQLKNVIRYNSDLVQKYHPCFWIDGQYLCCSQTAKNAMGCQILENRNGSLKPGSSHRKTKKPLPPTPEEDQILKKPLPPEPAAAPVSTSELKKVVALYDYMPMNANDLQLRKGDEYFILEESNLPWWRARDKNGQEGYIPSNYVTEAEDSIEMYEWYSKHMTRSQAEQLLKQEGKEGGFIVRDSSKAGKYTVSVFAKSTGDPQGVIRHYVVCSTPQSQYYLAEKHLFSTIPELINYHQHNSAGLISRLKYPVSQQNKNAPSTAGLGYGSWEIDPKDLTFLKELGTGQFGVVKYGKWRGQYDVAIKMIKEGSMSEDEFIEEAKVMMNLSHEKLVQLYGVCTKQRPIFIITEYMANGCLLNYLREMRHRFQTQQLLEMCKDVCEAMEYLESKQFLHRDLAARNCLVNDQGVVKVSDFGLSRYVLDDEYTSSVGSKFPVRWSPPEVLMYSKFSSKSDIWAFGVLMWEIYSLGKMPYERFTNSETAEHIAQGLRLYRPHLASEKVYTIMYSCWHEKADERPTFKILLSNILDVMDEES

## C=CC(=O)N1CCCC(NC(=O)c2sc3nccc4c3c2NC(=O)N4c2cnc(OC3CCCC3)cc2C)C1 (centres unmarked) [Compound G]
[1]; aqueous buffer, pH 7, read-out: Solubility pH 7
  Solubility: < 4 µM
[1]; simulated gastric fluid, pH 2, read-out: Solubility pH 2
  Solubility: 15 µM (≈ 8.2 µg/mL)
BTK; [4]
  Ki: 22.2 ± 3.3 nM
  kinact: 0.000307 s⁻¹
BTK; read-out: kinact/KI
  kinact/KI: 13800 ± 430 M⁻¹ s⁻¹
[2]
  half-life: < 4 min

## C=CC(=O)N[C@H]1CCC[C@H]1NC(=O)c1sc2nccc3c2c1NC(=O)N3c1cnc(CC(C)C)cc1C (single isomer, unassigned) [M form]
[3]; [5]
  Solubility: 0.2 mg/mL (≈ 0.386 mM)
[3]; [6]
  Solubility: 0.3 mg/mL (≈ 0.578 mM)
[3]; [7]
  Solubility: immiscible
[3]; [8]
  Solubility: 346.6 mg/mL (≈ 668 mM)
[3]; [9]
  Solubility: 334.0 mg/mL (≈ 644 mM)
[3]; [10]
  Solubility: immiscible
[3]; 1-Butanol, 10° C.
  Solubility: 397.5* mg/mL
[3]; 1-Butanol, 25° C.
  Solubility: 266.2 mg/mL (≈ 513 mM)
[3]; 1-Butanol, 50° C.
  Solubility: 444.7 mg/mL (≈ 857 mM)
[3]; 1-Propanol/water (20/80 w/w %), 10° C.
  Solubility: 4.2 mg/mL (≈ 8.1 mM)
[3]; [11]
  Solubility: 3.7 mg/mL (≈ 7.13 mM)
[3]; [12]
  Solubility: 4.9 mg/mL (≈ 9.45 mM)
[3]; [13]
  Solubility: 39.9 mg/mL (≈ 76.9 mM)
[3]; [14]
  Solubility: 285.9 mg/mL (≈ 551 mM)
[3]; [15]
  Solubility: 187.5 mg/mL (≈ 362 mM)
[3]; [16]
  Solubility: 276.3 mg/mL (≈ 533 mM)
[3]; [17]
  Solubility: 341.7 mg/mL (≈ 659 mM)
[3]; [18]
  Solubility: 336.5 mg/mL (≈ 649 mM)
[3]; [19]
  Solubility: 363.3 mg/mL (≈ 700 mM)
[3]; [20]
  Solubility: 394.0 mg/mL (≈ 760 mM)
[3]; [21]
  Solubility: 386.8 mg/mL (≈ 746 mM)
[3]; [22]
  Solubility: 394.5 mg/mL (≈ 761 mM)
[3]; 1-Propanol, 10° C.
  Solubility: 500.4 mg/mL (≈ 965 mM)
[3]; 1-Propanol, 25° C.
  Solubility: 265.4 mg/mL (≈ 512 mM)
[3]; [23]
  Solubility: 2.5 mg/mL (≈ 4.82 mM)
[3]; [24]
  Solubility: 1.7 mg/mL (≈ 3.28 mM)
[3]; 2-butanol/water (~17/83 w/w %), 50° C.
  Solubility: 0.2 mg/mL (≈ 0.386 mM)
[3]; Isobutanol/water (~8/92 w/w %), 10° C.
  Solubility: 0.2 mg/mL (≈ 0.386 mM)
[3]; Isobutanol/water (~8/92 w/w %), 25° C.
  Solubility: 0.2 mg/mL (≈ 0.386 mM)
[3]; Isobutanol/water (~8/92 w/w %), 50° C.
  Solubility: 0.1 mg/mL (≈ 0.193 mM)
[3]; Isobutanol, 10° C.
  Solubility: 272.5* mg/mL
[3]; Isobutanol, 25° C.
  Solubility: 238.0 mg/mL (≈ 459 mM)
[3]; Isobutanol, 50° C.
  Solubility: 389.4 mg/mL (≈ 751 mM)
[3]; [25]
  Solubility: 0.6 mg/mL (≈ 1.16 mM)
[3]; [26]
  Solubility: 0.6 mg/mL (≈ 1.16 mM)
[3]; [27]
  Solubility: 4.0 mg/mL (≈ 7.71 mM)
[3]; [28]
  Solubility: 3.0 mg/mL (≈ 5.78 mM)
[3]; [29]
  Solubility: 4.6 mg/mL (≈ 8.87 mM)
[3]; [30]
  Solubility: 10.0 mg/mL (≈ 19.3 mM)
[3]; [31]
  Solubility: 31.0 mg/mL (≈ 59.8 mM)
[3]; [32]
  Solubility: 31.0 mg/mL (≈ 59.8 mM)
[3]; [33]
  Solubility: >200 mg/mL
[3]; [34]
  Solubility: 126.0 mg/mL (≈ 243 mM)
[3]; [35]
  Solubility: 109.0 mg/mL (≈ 210 mM)
[3]; [36]
  Solubility: >200 mg/mL
[3]; [37]
  Solubility: 129.8 mg/mL (≈ 250 mM)
[3]; [38]
  Solubility: 123.9 mg/mL (≈ 239 mM)
[3]; [39]
  Solubility: 106.5 mg/mL (≈ 205 mM)
[3]; Propylene carbonate, 10° C.
  Solubility: 163.1 mg/mL (≈ 314 mM)
[3]; Propylene carbonate, 25° C.
  Solubility: 73.7 mg/mL (≈ 142 mM)
[3]; Propylene carbonate, 50° C.
  Solubility: 107.0* mg/mL

## C=CC(=O)N[C@H]1CCC[C@H]1NC(=O)c1sc2nccc3c2c1NC(=O)N3c1cnc(CC(C)C)cc1C (single isomer, unassigned) [P form]
[3]; [5]
  Solubility: 0.01 mg/mL (≈ 0.0193 mM)
[3]; [6]
  Solubility: 0.01 mg/mL (≈ 0.0193 mM)
[3]; [7]
  Solubility: immiscible
[3]; [8]
  Solubility: 18.2 mg/mL (≈ 35.1 mM)
[3]; [9]
  Solubility: 20.7 mg/mL (≈ 39.9 mM)
[3]; [10]
  Solubility: immiscible
[3]; 1-Butanol, 10° C.
  Solubility: 137.3 mg/mL (≈ 265 mM)
[3]; 1-Butanol, 25° C.
  Solubility: 132.8 mg/mL (≈ 256 mM)
[3]; 1-Butanol, 50° C.
  Solubility: 197.6 mg/mL (≈ 381 mM)
[3]; [11]
  Solubility: 0.4 mg/mL (≈ 0.771 mM)
[3]; [12]
  Solubility: 0.5 mg/mL (≈ 0.964 mM)
[3]; 1-Propanol/water (33/67 w/w %), 10 °C, aqueous with cosolvent or surfactant or cyclodextrin, thermodynamic from solid, 1-Propanol/water (33/67 w/w %), 10° C., read-out: Solubility
  Solubility: 2.2 mg/mL (≈ 4.24 mM)
[3]; [13]
  Solubility: 1.9 mg/mL (≈ 3.66 mM)
[3]; [14]
  Solubility: 1.8 mg/mL (≈ 3.47 mM)
[3]; [15]
  Solubility: 8.5 mg/mL (≈ 16.4 mM)
[3]; [16]
  Solubility: 15.6* mg/mL
[3]; [17]
  Solubility: 18.0 mg/mL (≈ 34.7 mM)
[3]; [18]
  Solubility: 20.8 mg/mL (≈ 40.1 mM)
[3]; [19]
  Solubility: 20.3* mg/mL
[3]; [20]
  Solubility: 24.8 mg/mL (≈ 47.8 mM)
[3]; [21]
  Solubility: 26.3 mg/mL (≈ 50.7 mM)
[3]; [22]
  Solubility: 32.3* mg/mL
[3]; 1-Propanol, 10° C.
  Solubility: 206.8 mg/mL (≈ 399 mM)
[3]; 1-propanol, 25 °C, organic solvent or mixture, 1-Propanol, 25° C., read-out: Solubility
  Solubility: 197 mg/mL (≈ 380 mM)
[3]; 1-propanol, 50 °C, organic solvent or mixture, 1-Propanol, 50° C., read-out: Solubility
  Solubility: 255 mg/mL (≈ 492 mM)
[3]; 1-propanol/water (50/50 w/w %), 10 °C, aqueous with cosolvent or surfactant or cyclodextrin, thermodynamic from solid, 1-Propanol/water (50/50 w/w %), 10° C., read-out: Solubility
  Solubility: 8.1 mg/mL (≈ 15.6 mM)
[3]; 2-butanol/water (~17/83 w/w %), 50 °C, aqueous with cosolvent or surfactant or cyclodextrin, 2-butanol/water (~17/83 w/w %), 50° C., read-out: Solubility
  Solubility: 0.2 mg/mL (≈ 0.386 mM)
[3]; [23]
  Solubility: 0.5 mg/mL (≈ 0.964 mM)
[3]; [24]
  Solubility: 0.3 mg/mL (≈ 0.578 mM)
[3]; Isobutanol, 10° C.
  Solubility: 105.8 mg/mL (≈ 204 mM)
[3]; Isobutanol, 25° C.
  Solubility: 102.2 mg/mL (≈ 197 mM)
[3]; Isobutanol, 50° C.
  Solubility: 134.3 mg/mL (≈ 259 mM)
[3]; [25]
  Solubility: 0.1 mg/mL (≈ 0.193 mM)
[3]; [26]
  Solubility: 0.2 mg/mL (≈ 0.386 mM)
[3]; [27]
  Solubility: 0.3 mg/mL (≈ 0.578 mM)
[3]; [28]
  Solubility: 0.4 mg/mL (≈ 0.771 mM)
[3]; [29]
  Solubility: 0.7 mg/mL (≈ 1.35 mM)
[3]; [30]
  Solubility: 1.1 mg/mL (≈ 2.12 mM)
[3]; [31]
  Solubility: 2.0 mg/mL (≈ 3.86 mM)
[3]; [32]
  Solubility: 3.0 mg/mL (≈ 5.78 mM)
[3]; [33]
  Solubility: 2.0 mg/mL (≈ 3.86 mM)
[3]; [34]
  Solubility: 4.0 mg/mL (≈ 7.71 mM)
[3]; [35]
  Solubility: 6.0 mg/mL (≈ 11.6 mM)
[3]; [36]
  Solubility: 4.0 mg/mL (≈ 7.71 mM)
[3]; [37]
  Solubility: 10.9 mg/mL (≈ 21 mM)
[3]; [38]
  Solubility: 9.0 mg/mL (≈ 17.4 mM)
[3]; [39]
  Solubility: 8.6 mg/mL (≈ 16.6 mM)
[3]; Propylene carbonate, 10° C.
  Solubility: 55.8 mg/mL (≈ 108 mM)
[3]; isobutanol/water (~8/92 w/w %), 10 °C, aqueous with cosolvent or surfactant or cyclodextrin, Isobutanol/water (~8/92 w/w %), 10° C., read-out: Solubility
  Solubility: 0.1 mg/mL (≈ 0.193 mM)
[3]; isobutanol/water (~8/92 w/w %), 25 °C, aqueous with cosolvent or surfactant or cyclodextrin, Isobutanol/water (~8/92 w/w %), 25° C., read-out: Solubility
  Solubility: 0.1 mg/mL (≈ 0.193 mM)
[3]; isobutanol/water (~8/92 w/w %), 50 °C, aqueous with cosolvent or surfactant or cyclodextrin, Isobutanol/water (~8/92 w/w %), 50° C., read-out: Solubility
  Solubility: 0.1 mg/mL (≈ 0.193 mM)
[3]; propylene carbonate, 25 °C, organic solvent or mixture, Propylene carbonate, 25° C., read-out: Solubility
  Solubility: 50.1 mg/mL (≈ 96.6 mM)
[3]; propylene carbonate, 50 °C, organic solvent or mixture, Propylene carbonate, 50° C., read-out: Solubility
  Solubility: 97.3 mg/mL (≈ 188 mM)
